Experimental data taken from PubChem BioAssay AID256 (DTP/NCI, 2004).
Values joined by “and” are separate entries in the source; they are usually repeats but may differ in a detail not shown here. Equal entries are not always repeated. Toxic doses and inconclusive results are not listed. How the source made its calls: active means survival T/C of 150% or more; inactive means T/C below 125% in these data.

Test system: CD2F1 mice, L1210 leukemia ip, survival T/C
Assay: NCI In Vivo Anticancer Drug Screen. Data for tumor model L1210 Leukemia (intraperitoneal) in CD2F1 (CDF1) mice
Details: higher = longer survival
Method in brief: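 Read-out first: treated-group measurement over vehicle-control measurement, expressed as a ratio. Animals bore a transplanted tumor line and were dosed with compound or vehicle.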

[1] = endpoint: mean survival time, dose: 100.0 mg/kg/injection, schedule: Q01DX001 (ip), vehicle: saline
[2] = endpoint: mean survival time, dose: 200.0 mg/kg/injection, schedule: Q01DX001 (ip), vehicle: saline
[3] = endpoint: mean survival time, dose: 400.0 mg/kg/injection, schedule: Q01DX001 (ip), vehicle: saline
[4] = endpoint: mean survival time, dose: 50.0 mg/kg/injection, schedule: Q01DX009 (ip), vehicle: saline with Tween-80
[5] = endpoint: mean survival time, dose: 100.0 mg/kg/injection, schedule: Q01DX009 (ip), vehicle: saline with Tween-80
[6] = endpoint: mean survival time, dose: 200.0 mg/kg/injection, schedule: Q01DX009 (ip), vehicle: saline with Tween-80
[7] = endpoint: mean survival time, dose: 25.0 mg/kg/injection, schedule: Q04DX002 (ip), vehicle: saline with Tween-80
[8] = endpoint: mean survival time, dose: 50.0 mg/kg/injection, schedule: Q04DX002 (ip), vehicle: saline with Tween-80
[9] = endpoint: mean survival time, dose: 100.0 mg/kg/injection, schedule: Q04DX002 (ip), vehicle: saline with Tween-80
[10] = endpoint: mean survival time, dose: 100.0 mg/kg/injection, schedule: Q04DX003 (ip), vehicle: saline with Tween-80
[11] = endpoint: mean survival time, dose: 200.0 mg/kg/injection, schedule: Q04DX003 (ip), vehicle: saline with Tween-80
[12] = endpoint: mean survival time, dose: 100.0 mg/kg/injection, schedule: Q01DX001 (ip), vehicle: saline with Tween-80
[13] = endpoint: mean survival time, dose: 200.0 mg/kg/injection, schedule: Q01DX001 (ip), vehicle: saline with Tween-80
[14] = endpoint: mean survival time, dose: 400.0 mg/kg/injection, schedule: Q01DX001 (ip), vehicle: saline with Tween-80

Measured: T/C

N#CC1(OC2OC(CO)C(O)C(O)C2O)C=CC(O)C1O (stereo not drawn)
inactive: [1] 101 % of control | [2] 101 % of control | [3] 98 % of control

C/C=C\c1ccc(OCCOC(=O)Nc2c(Cl)cccc2Cl)c(OC)c1
inactive: endpoint: mean survival time, dose: 12.5 mg/kg/injection, schedule: Q01DX009 (ip), vehicle: saline with Tween-80 103 % of control | endpoint: mean survival time, dose: 25.0 mg/kg/injection, schedule: Q01DX009 (ip), vehicle: saline with Tween-80 97 % of control | [4] 94 % of control and 99 % of control | [5] 94 % of control | [6] 94 % of control

c1ccc(-c2nnc(-c3ccccn3)o2)nc1
inactive: [7] 102 % of control | [8] 98 % of control | [9] 107 % of control

OC(CN1CCOCC1)CN1CCOCC1
inactive: [1] 104 % of control | [2] 104 % of control | [3] 103 % of control

S=C1NC(/C=C/c2ccccc2)Nc2ccccc21 (stereo not drawn)
inactive: [10] 91 % of control | [11] 87 % of control

O=[N+]([O-])c1ccc(C[N+]23CCN(CC2)CC3)cc1
inactive: [12] 100 % of control | [13] 106 % of control

O.O.[Co].[Co].[NH-]CC[NH-].[NH-]CC[NH-].[NH-]CC[NH-].[NH-]CC[NH-]
inactive: endpoint: mean survival time, dose: 25.0 mg/kg/injection, schedule: Q04DX002 (ip), vehicle: saline 98 % of control | endpoint: mean survival time, dose: 50.0 mg/kg/injection, schedule: Q04DX002 (ip), vehicle: saline 106 % of control

Cc1ccc(Cl)cc1S
inactive: endpoint: mean survival time, dose: 75.0 mg/kg/injection, schedule: Q01DX001 (ip), vehicle: saline 98 % of control | endpoint: mean survival time, dose: 150.0 mg/kg/injection, schedule: Q01DX001 (ip), vehicle: saline 102 % of control | endpoint: mean survival time, dose: 300.0 mg/kg/injection, schedule: Q01DX001 (ip), vehicle: saline 103 % of control

COc1ccc(/C=C/C(=O)Oc2cc(O)cc(O)c2)cc1
inactive: endpoint: mean survival time, dose: 12.5 mg/kg/injection, schedule: Q04DX002 (ip), vehicle: saline with Tween-80 97 % of control | [7] 93 % of control | [8] 101 % of control | [13] 94 % of control | [14] 92 % of control

Nc1nc(Cl)c2nc(Cl)n(C3OC(CO)C(O)C3O)c2n1 (stereo not drawn)
inactive: [1] 102 % of control | [2] 102 % of control | [3] 100 % of control

N#Cc1cn(C2OC(CO)C(O)C2O)c2[nH]cnc(=S)c12 (stereo not drawn)
inactive: [1] 103 % of control | [2] 108 % of control | [3] 109 % of control

CC(=O)Nc1c(C)cccc1[N+](=O)[O-]
inactive: endpoint: mean survival time, dose: 25.0 mg/kg/injection, schedule: Q01DX001 (ip), vehicle: saline with Tween-80 101 % of control | endpoint: mean survival time, dose: 50.0 mg/kg/injection, schedule: Q01DX001 (ip), vehicle: saline with Tween-80 97 % of control | [12] 97 % of control

CSc1nc(Cl)c2cc(C)[nH]c2n1
inactive: endpoint: median survival time, dose: 50.0 mg/kg/injection, schedule: Q01DX005 (ip), vehicle: saline 98 % of control | endpoint: median survival time, dose: 100.0 mg/kg/injection, schedule: Q01DX005 (ip), vehicle: saline 100 % of control | endpoint: median survival time, dose: 200.0 mg/kg/injection, schedule: Q01DX005 (ip), vehicle: saline 94 % of control

CC1=CC(CO)C2C(=O)NC(=O)C2C1C (stereo not drawn)
inactive: endpoint: mean survival time, dose: 100.0 mg/kg/injection, schedule: Q01DX001 (ip), vehicle: Klucel (hydroxypropylcellulose) (HPC) 98 % of control | endpoint: mean survival time, dose: 200.0 mg/kg/injection, schedule: Q01DX001 (ip), vehicle: Klucel (hydroxypropylcellulose) (HPC) 105 % of control | endpoint: mean survival time, dose: 400.0 mg/kg/injection, schedule: Q01DX001 (ip), vehicle: Klucel (hydroxypropylcellulose) (HPC) 105 % of control

CN(N=O)C(=O)NCC1OC(OC2(CO)OC(CNC(=O)N(C)N=O)C(O)C2O)C(O)C(O)C1O (stereo not drawn)
inactive: endpoint: mean survival time, dose: 50.0 mg/kg/injection, schedule: Q01DX009 (ip), vehicle: saline 119 % of control | endpoint: mean survival time, dose: 100.0 mg/kg/injection, schedule: Q01DX009 (ip), vehicle: saline 122 % of control | endpoint: mean survival time, dose: 133.0 mg/kg/injection, schedule: Q01DX009 (ip), vehicle: saline 107 % of control

Nc1nc(N)nc(Cc2ccccc2)n1
inactive: [12] 104 % of control | [13] 103 % of control | [14] 95 % of control

COc1cc(OC)c2c(c1Cl)OCC2=O
inactive: [5] 91 % of control | [10] 103 % of control | [6] 91 % of control | [11] 94 % of control | endpoint: mean survival time, dose: 400.0 mg/kg/injection, schedule: Q04DX003 (ip), vehicle: saline with Tween-80 97 % of control

Nc1nc(N)c2nc3c4ccccc4c4ccccc4c3nc2n1
inactive: [12] 95 % of control | [5] 93 % of control | [13] 91 % of control | [14] 97 % of control

[Cl][Pt][Cl].c1ccc([PH+](c2ccccc2)c2ccccc2)cc1.c1ccc([PH+](c2ccccc2)c2ccccc2)cc1
inactive: [12] 95 % of control | [13] 92 % of control | [14] 92 % of control

CC(C)C1CCC(C)C(C(O)(C(F)(F)F)C(F)(F)F)C1O (stereo not drawn)
inactive: [1] 101 % of control | [9] 98 % of control | [2] 101 % of control | endpoint: mean survival time, dose: 200.0 mg/kg/injection, schedule: Q04DX002 (ip), vehicle: saline with Tween-80 98 % of control | [3] 97 % of control | endpoint: mean survival time, dose: 400.0 mg/kg/injection, schedule: Q04DX002 (ip), vehicle: saline with Tween-80 94 % of control

CCCCCCCCCCCC(C)CC(CN)C(=O)OCC (stereo not drawn)
inactive: endpoint: mean survival time, dose: 100.0 mg/kg/injection, schedule: Q04DX002 (ip), vehicle: saline 92 % of control | endpoint: mean survival time, dose: 200.0 mg/kg/injection, schedule: Q04DX002 (ip), vehicle: saline 100 % of control | endpoint: mean survival time, dose: 400.0 mg/kg/injection, schedule: Q04DX002 (ip), vehicle: saline 100 % of control

CN1C(=O)CN(CCN2CC(=O)N(c3ccccc3)C2=S)C1=S
inactive: [4] 93 % of control | [5] 93 % of control | [6] 89 % of control
